# Where “and” joins values, the source holds several entries; their conditions need not be identical. Identical values can stand only once.
# Assays:
# [1] = molecular target: coca-5HT3 (Homo sapiens, UniProt P36544, G175K/L141G/Y210F/Y217F); experiment: [^3H]ASEM displacement, membranes of HEK293 cells expressing coca-5HT3; type: binding, human α7 nAChR LBD, mouse 5HT3 IPD; settings: for [3H]ASEM binding, normalised dose-response (DR replicates): HotNM 2.000
# Protocol: (§1) Cells were suspended in Tris-HCl 50 mM pH 7.4 supplemented with protease inhibitor cocktail (1:100, Sigma-Aldrich). HEK293 cells were disrupted with a 6 Polytron homogenizer (Kinematica). Homogenates were centrifuged at 48,000g (50 min, 4 °C) and washed twice in the same conditions to isolate the membrane fraction. Protein was quantified using the bicinchoninic acid method (Pierce). […] Free and membrane-bound radioligands were separated by rapid filtration of 500 μl aliquots in a 96-well plate harvester (Brandel) and washed with 2 ml of ice-cold Tris-HCl buffer. Microscint-20 scintillation liquid (65 μl per well, PerkinElmer) was added to the filter plates, plates were incubated overnight at room temperature and radioactivity counts were determined in the MicroBeta2 plate counter (PerkinElmer) with an efficiency of 41%. Two-site competition curves were fitted using Prism 10 (GraphPad). Ki values were calculated using the Cheng–Prusoff equation.
# [2] = molecular target: T1, coca-GlyR (Homo sapiens, UniProt P23415+P36544, G175K/L141G/Y217F); experiment: [^3H]ASEM displacement, membranes of HEK293 cells expressing coca-GlyR; type: binding
# T1 construct: expressed in transfected cells; host or cells: HEK293 (ATCC CRL-1573), pcDNA3.1
# Protocol: as §1
# [3] = molecular target: T2, unmodified α7–GlyR (Homo sapiens, UniProt P23415+P36544); design: method as in PMID 30872534; settings: cited from earlier work
# T2 construct: expressed in transfected cells; host or cells: HEK293 (ATCC CRL-1573), pcDNA3.1
# [4] = molecular target: T3, unmodified α7–5HT3 (UniProt P23979+P36544); design: method as in PMID 30872534; settings: cited from earlier work
# T3 construct: expressed in transfected cells; host or cells: HEK293 (ATCC CRL-1573), pcDNA3.1
# [5] = test system: α7 nAChR; settings: cited from earlier work
# [6] = Two sites - Fit Ki, best-fit value per replicate
# [7] = Two sites - Fit Ki, best-fit value, single experiment
# coca-5HT3, sequence (P23979 242-489): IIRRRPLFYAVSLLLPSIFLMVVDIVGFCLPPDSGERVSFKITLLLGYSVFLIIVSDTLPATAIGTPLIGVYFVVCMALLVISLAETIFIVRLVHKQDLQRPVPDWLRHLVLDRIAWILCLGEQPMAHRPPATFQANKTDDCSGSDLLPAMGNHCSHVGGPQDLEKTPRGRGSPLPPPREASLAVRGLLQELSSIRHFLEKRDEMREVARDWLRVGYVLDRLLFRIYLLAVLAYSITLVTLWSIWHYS
# coca-5HT3, sequence (P36544 23-224 L141G/G175K/Y210F/Y217F): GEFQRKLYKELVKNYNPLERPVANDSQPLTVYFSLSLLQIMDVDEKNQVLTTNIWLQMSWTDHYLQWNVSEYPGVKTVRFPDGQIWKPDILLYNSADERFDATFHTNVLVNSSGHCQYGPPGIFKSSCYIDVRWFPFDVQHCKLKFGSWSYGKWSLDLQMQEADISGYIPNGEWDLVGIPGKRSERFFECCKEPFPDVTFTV
# T3 sequence (P36544+P23979 fused P36544:T225I/P36544:M226I): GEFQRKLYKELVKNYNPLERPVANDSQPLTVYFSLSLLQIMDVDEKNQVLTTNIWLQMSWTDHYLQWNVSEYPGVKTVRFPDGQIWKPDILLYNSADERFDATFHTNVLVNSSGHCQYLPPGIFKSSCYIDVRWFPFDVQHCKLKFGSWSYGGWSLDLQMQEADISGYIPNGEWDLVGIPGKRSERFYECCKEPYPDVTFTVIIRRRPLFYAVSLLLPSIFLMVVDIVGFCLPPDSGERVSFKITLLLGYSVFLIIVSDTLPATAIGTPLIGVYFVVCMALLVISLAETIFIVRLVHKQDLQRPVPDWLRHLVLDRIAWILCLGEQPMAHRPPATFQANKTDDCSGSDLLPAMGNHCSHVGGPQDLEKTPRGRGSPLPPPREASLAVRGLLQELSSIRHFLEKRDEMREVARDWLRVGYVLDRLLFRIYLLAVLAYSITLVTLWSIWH
# T1 sequence (P36544+P23415 fused P36544:L141G/P36544:G175K/P36544:Y217F): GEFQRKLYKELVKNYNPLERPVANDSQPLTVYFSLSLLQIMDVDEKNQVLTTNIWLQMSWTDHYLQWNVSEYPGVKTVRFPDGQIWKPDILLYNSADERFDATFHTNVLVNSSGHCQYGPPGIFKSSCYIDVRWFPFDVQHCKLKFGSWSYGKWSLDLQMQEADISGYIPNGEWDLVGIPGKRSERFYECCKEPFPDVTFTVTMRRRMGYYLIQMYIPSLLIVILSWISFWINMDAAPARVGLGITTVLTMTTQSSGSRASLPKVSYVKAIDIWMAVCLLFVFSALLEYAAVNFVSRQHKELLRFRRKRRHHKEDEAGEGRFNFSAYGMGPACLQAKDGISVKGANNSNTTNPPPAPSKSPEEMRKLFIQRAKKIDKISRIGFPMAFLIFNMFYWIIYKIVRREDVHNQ
# T2 sequence (P36544+P23415 fused): as the sequence (P36544+P23415 fused P36544:L141G/P36544:G175K/P36544:Y217F) above, with G119L, K153G, F195Y counted along it
structure (smiles),measurement,setting,value
O=S1(=O)c2cc(N3CCN4CCC3CC4)ccc2-c2cccc(F)c21 [ASEM],binding to coca-5HT3,[1],biphasic manner
same,FractionHi MEAN,"[1]; Two sites - Fit Ki, MEAN of 3 experiments",0.4238
same,Bottom,[1]; [6],-0.2261 and -1.876 and -13.02
same,Top,[1]; [6],108.2 and 99.61 and 97.94
same,FractionHi,"[1]; Two sites - Fit Ki, best-fit value per replicate, fraction of high-affinity sites",0.4342 and 0.3061 and 0.4229
same,FractionHi,[1]; [7],0.4739 and 0.3529 and 0.4445
same,Top,[1]; [7],103.6 and 103.2 and 103.8
same,FractionHi MEAN,"[1]; Two sites - Fit Ki, MEAN of replicates",0.3877
same,"[3H]ASEM binding, normalised dose-response (DR replicates)",[1]; competitor log(M) -4,0 and 2.042 and -2.042
same,"[3H]ASEM binding remaining, single experiment",[1]; competitor log(M) -5,21.992 and 15.466 and 20.212
same,"[3H]ASEM binding, normalised dose-response (DR replicates)",[1]; competitor log(M) -5,13.773 and 20.58
same,"[3H]ASEM binding remaining, single experiment",[1]; competitor log(M) -5.5,26.835 and 27.725
same,"[3H]ASEM binding, normalised dose-response (DR replicates)",[1]; competitor log(M) -5.5,32.147 and 34.87 and 51.889
same,"[3H]ASEM binding remaining, single experiment",[1]; competitor log(M) -6,38.451 and 39.34
same,"[3H]ASEM binding, normalised dose-response (DR replicates)",[1]; competitor log(M) -6,39.688 and 59.43 and 60.791
same,"[3H]ASEM binding remaining, single experiment",[1]; competitor log(M) -6.5,45.049 and 48.906 and 53.356
same,"[3H]ASEM binding, normalised dose-response (DR replicates)",[1]; competitor log(M) -6.5,51.256 and 70.998 and 34.237
same,"[3H]ASEM binding remaining, single experiment",[1]; competitor log(M) -7,68.627 and 77.823 and 60.024
same,"[3H]ASEM binding, normalised dose-response (DR replicates)",[1]; competitor log(M) -7,64.248 and 83.99 and 53.356
same,"[3H]ASEM binding remaining, single experiment",[1]; competitor log(M) -8,69.758 and 69.462 and 44.246
same,"[3H]ASEM binding, normalised dose-response (DR replicates)",[1]; competitor log(M) -8,67.668 and 43.16
same,"[3H]ASEM binding remaining, single experiment",[1]; competitor log(M) -8.5,79.055 and 76.385 and 69.859
same,"[3H]ASEM binding, normalised dose-response (DR replicates)",[1]; competitor log(M) -8.5,58.761 and 45.827 and 64.888
same,"[3H]ASEM binding remaining, single experiment",[1]; competitor log(M) -9,118.645 and 95.803 and 67.325
same,"[3H]ASEM binding, normalised dose-response (DR replicates)",[1]; competitor log(M) -9,68.4 and 67.719
same,"[3H]ASEM binding remaining, single experiment",[1]; competitor log(M) -9.5,111.297 and 122.273 and 76.589
same,"[3H]ASEM binding, normalised dose-response (DR replicates)",[1]; competitor log(M) -9.5,73.805 and 71.082 and 77.209
same,"[3H]ASEM binding remaining, single experiment",[1]; competitor log(M) -10,101.728 and 95.202 and 81.556
same,"[3H]ASEM binding, normalised dose-response (DR replicates)",[1]; competitor log(M) -10,78.63 and 99.734 and 90.884
same,"[3H]ASEM binding remaining, single experiment",[1]; competitor log(M) -10.5,92.261 and 100.567 and 96.414
same,"[3H]ASEM binding, normalised dose-response (DR replicates)",[1]; competitor log(M) -10.5,94.278 and 80.663 and 86.79
same,"[3H]ASEM binding remaining, single experiment",[1]; competitor log(M) -11,96.153 and 103.569 and 104.162
same,"[3H]ASEM binding, normalised dose-response (DR replicates)",[1]; competitor log(M) -11,97.033 and 84.779 and 104.521
same,"[3H]ASEM binding remaining, single experiment",[1]; competitor log(M) -13,102.966 and 93.474 and 103.56
same,"[3H]ASEM binding, normalised dose-response (DR replicates)",[1]; competitor log(M) -13,111.346 and 109.984
same,binding to coca-GlyR,[2],biphasic manner
CN1[C@@H]2CC[C@H]1C[C@@H](OC(=O)c1c[nH]c3ccccc13)C2 [tropisetron],activity at chimeric channel α7–GlyR,[3],agonist
same,activity at chimeric channel α7–5HT3,[4],agonist
same,activity at α7 nAChR,[5],agonist

# Reference: article PMC12527922, “Cocaine chemogenetics blunts drug-seeking by synthetic physiology” (Nature, 2025)
